Experimental data from patent US8829007B2 (priority 2009, dated 2014).

What follows are compounds tested on A/PR/8/34 influenza virus (assay: microbe, parasite or virus in culture). Conditions: Influenza A virus, PR/8, MDCK, MDCK cells infected with A/PR/8/34, bDNA viral RNA; read-out: EC50 (mean all).
Assay type: cell-based
Compound `Fc1cnc(-c2c[nH]c3ncc(Cl)cc23)nc1N[C@H]1CCCN(CC(F)F)C1` [Compound 1, (S)-2-(5-chloro-1H-pyrrolo[2,3-b]pyridin-3-yl)-N-(1-(2,2-difluoroethyl)piperidin-3-yl)-5-fluoropyrimidin-4-amine] has an EC50 of under 5 µM.

Same assay, conditions: Influenza A virus, PR/8, MDCK, MDCK cells infected with A/PR/8/34; replication of influenza virus (viral RNA, bDNA); class symbols; read-out: EC50 (mean all)
With `CC(C(N)=O)N1CCCC(Nc2nc(-c3c[nH]c4ncc(Cl)cc34)ncc2F)C1` [Compound 583, 2-((S)-3-((2-(5-chloro-1H-pyrrolo[2,3-b]pyridin-3-yl)-5-fluoropyrimidin-4-ylamino)piperidin-1-yl)propanamide] the EC50 was under 5 µM. `CC(=O)N[C@@H]1CCC[C@H](Nc2nc(-c3c[nH]c4ncc(Cl)cc34)ncc2F)C1` [Compound 576, N-[(1R,3S)-3-[[2-(5-chloro-1H-pyrrolo[2,3-b]pyridin-3-yl)-5-fluoro-pyrimidin-4-yl]amino]cyclohexyl]acetamide] was tested, and the EC50 was under 5 µM. With `CN(C)C(=O)N[C@H]1CCC[C@@H](Nc2nc(-c3c[nH]c4ncc(Cl)cc34)ncc2F)C1` [Compound 549, 3-[(1S,3R)-3-[[2-(5-chloro-1H-pyrrolo[2,3-b]pyridin-3-yl)-5-fluoro-pyrimidin-4-yl]amino]cyclohexyl]-1,1-dimethyl-urea] the EC50 was under 5 µM. Work on `COCCC(=O)N1CCC(F)(F)CC1CNc1nc(-c2c[nH]c3ncc(Cl)cc23)ncc1F` (stereo not shown) [Compound 584, 1-(2-((2-(5-chloro-1H-pyrrolo[2,3-b]pyridin-3-yl)-5-fluoropyrimidin-4-ylamino)methyl)-4,4-difluoropiperidin-1-yl)-3-methoxypropan-1-one] yielded an EC50 of under 5 µM. Work on `COC(=O)N[C@H]1CCC[C@@H](Nc2nc(-c3c[nH]c4ncc(Cl)cc34)ncc2F)C1` [Compound 548, Methyl N-[(1S,3R)-3-[[2-(5-chloro-1H-pyrrolo[2,3-b]pyridin-3-yl)-5-fluoro-pyrimidin-4-yl]amino]cyclohexyl]carbamate] yielded an EC50 of under 5 µM. `O=C(O)CN1CCC[C@H](Nc2nc(-c3c[nH]c4ncc(Cl)cc34)ncc2F)C1` [Compound 577] gave an EC50 of under 5 µM. In the case of `COCCOC(=O)[C@H]1CCCC[C@@H]1Nc1nc(-c2c[nH]c3ncc(Cl)cc23)ncc1F` [Compound 574, (1S,2S)-2-methoxyethyl 2-(2-(5-chloro-1H-pyrrolo[2,3-b]pyridin-3-yl)-5-fluoropyrimidin-4-ylamino)cyclohexanecarboxylate], the EC50 is reported as under 5 µM. `O=C(O)[C@H]1CCCC[C@H]1Nc1nc(-c2c[nH]c3ncc(Cl)cc23)ncc1F` [Compound 579, (1S,2R)-2-(2-(5-chloro-1H-pyrrolo[2,3-b]pyridin-3-yl)-5-fluoropyrimidin-4-ylamino)cyclohexanecarboxylic acid] showed an EC50 of under 5 µM. Compound `CC(C)OCC(O)CN1CCCC(Nc2nc(-c3c[nH]c4ncc(Cl)cc34)ncc2F)C1` [Compound 551, 1-((S)-3-((2-(5-chloro-1H-pyrrolo[2,3-b]pyridin-3-yl)-5-fluoropyrimidin-4-ylamino)piperidin-1-yl)-3-isopropoxypropan-2-ol] has an EC50 of under 5 µM. In the case of `CC(C)(O)CN1CCC[C@H](Nc2nc(-c3c[nH]c4ncc(Cl)cc34)ncc2F)C1` [Compound 546], the EC50 is reported as under 5 µM. For `COCC(O)CN1CC[C@H](C)[C@H](Nc2nc(-c3c[nH]c4ncc(Cl)cc34)ncc2F)C1` (stereo partly shown) [Compound 550], the EC50 was under 5 µM.

Same assay, conditions: Influenza A virus, PR/8, MDCK, bDNA assay, A/PR/8/34 influenza virus replication in MDCK cells; class symbols; read-out: EC50 (mean all)
Work on `N#CCCCN1CCC[C@@H](CNc2nc(-c3c[nH]c4ncc(Cl)cc34)ncc2F)C1` [Compound 666, (S)-4-(3-((2-(5-chloro-1H-pyrrolo[2,3-b]pyridin-3-yl)-5-fluoropyrimidin-4-ylamino)methyl)piperidin-1-yl)butanenitrile] yielded an EC50 of over 10 µM. Compound `N#CCCN1CCC[C@@H](CNc2nc(-c3c[nH]c4ncc(Cl)cc34)ncc2F)C1` [Compound 667, (S)-3-(3-((2-(5-chloro-1H-pyrrolo[2,3-b]pyridin-3-yl)-5-fluoropyrimidin-4-ylamino)methyl)piperidin-1-yl)propanenitrile] has an EC50 of over 10 µM.

Same assay, conditions: Influenza A virus, PR/8, mean all; replication of A/PR/8/34 influenza virus (bDNA assay); read-out: EC50
Work on `C[C@@]1(NC(=O)N2CCCC2)CCCC(Nc2nc(-c3c[nH]c4ncc(Cl)cc34)ncc2F)C1` (stereo partly shown) [Compound 926] yielded an EC50 of under 5 µM.

Same assay, conditions: mean all; A/PR/8/34 influenza virus replication, bDNA; read-out: EC50
`NC(=O)[C@@H]1CCC[C@H](Nc2nc(-c3c[nH]c4ncc(Cl)cc34)ncc2F)C1` [Compound 847] gave an EC50 of under 5 µM.

What follows are compounds tested on influenza A virus (A/PR/8/34) (assay: microbe, parasite or virus in culture). Conditions: Influenza A virus, PR/8, MDCK, MDCK cells infected with A/PR/8/34, cell protection (CPE); read-out: IC50 (mean all).
Assay type: cell-based
`CNC(=O)N1CCC[C@H](CNc2nc(-c3c[nH]c4ncccc34)ncc2F)C1` [Compound 274] showed an IC50 of 5 to 20 µM. `CCCNC(=O)N1CCC[C@H](CNc2nc(-c3c[nH]c4ncccc34)ncc2F)C1` [Compound 276] was tested, and the IC50 was over 20 µM. For `CC(C)(C)NC(=O)N1CCC[C@@H](CNc2nc(-c3c[nH]c4ncc(Cl)cc34)ncc2F)C1` [Compound 20, (S)—N-tert-butyl-3-((2-(5-chloro-1H-pyrrolo[2,3-b]pyridin-3-3-yl)-5-fluoropyrimidin-4-ylamino)methyl)piperidine-1-carboxamide], the IC50 was 5 to 20 µM. In the case of `COc1cccc(C(=O)N2CCCC[C@@H]2CNc2nc(-c3c[nH]c4ncc(Cl)cc34)ncc2F)c1` [Compound 184, (R)-(2-((2-(5-chloro-1H-pyrrolo[2,3-b]pyridin-3-yl)-5-fluoropyrimidin-4-ylamino)methyl)piperidin-1-yl)(3-methoxyphenyl)methanone], the IC50 is reported as over 20 µM. For `Cc1ccccc1CN1CCC[C@@H](CNc2nc(-c3c[nH]c4ncc(Cl)cc34)ncc2F)C1` [Compound 139, (S)-2-(5-chloro-1H-pyrrolo[2,3-b]pyridin-3-yl)-5-fluoro-N-((1-(2-methylbenzyl)piperidin-3-yl)methyl)pyrimidin-4-amine], the IC50 was over 20 µM. With `C[C@@H](CO)CN1CCC[C@@H](CNc2nc(-c3c[nH]c4ncc(Cl)cc34)ncc2F)C1` [Compound 141, (R)-3-((S)-3-((2-(5-chloro-1H-pyrrolo[2,3-b]pyridin-3-yl)-5-fluoropyrimidin-4-ylamino)methyl)piperidin-1-yl)-2-methylpropan-1-ol] the IC50 was over 20 µM.

Same assay, conditions: Influenza A virus, PR/8, MDCK, MDCK cells infected with A/PR/8/34; survival of infected cells; class symbols; read-out: IC50 (mean all)
With `COC(=O)N1CCCC(Nc2nc(-c3c[nH]c4ncc(Cl)cc34)ncc2F)CC1` (stereo not shown) [Compound 498, methyl 4-(2-(5-chloro-1H-pyrrolo[2,3-b]pyridin-3-yl)-5-fluoropyrimidin-4-ylamino)azepane-1-carboxylate] the IC50 was under 5 µM. `O=C1NCCCC[C@@H]1Nc1ccnc(-c2c[nH]c3ncc(F)cc23)n1` [Compound 501] gave an IC50 of 5 to 20 µM.

Same assay, conditions: Influenza A virus, PR/8, MDCK, mean all; A/PR/8/34 infected MDCK cells, CPE assay; read-out: IC50
With `CCCNC(=O)N[C@@H]1CCCC[C@H]1Nc1nc(-c2c[nH]c3ncc(Cl)cc23)ncc1F` (relative stereo) [Compound 368, 1-[trans-2-[[2-(5-chloro-1H-pyrrolo[2,3-b]pyridin-3-yl)-5-fluoro-pyrimidin-4-yl]amino]cyclohexyl]-3-propyl-urea] the IC50 was over 20 µM. In the case of `O=C1NCCC1Nc1nc(-c2c[nH]c3ncc(Cl)cc23)ncc1F` (stereo not shown) [Compound 380], the IC50 is reported as 5 to 20 µM. With `O=C(N[C@@H]1CCCC[C@@H]1Nc1nc(-c2c[nH]c3ncccc23)ncc1F)c1ccccc1` (relative stereo) [Compound 344, N-[cis-2-[[5-fluoro-2-(1H-pyrrolo[2,3-b]pyridin-3-yl)pyrimidin-4-yl]amino]cyclohexyl]benzamide] the IC50 was over 20 µM. `Fc1cnc(-c2c[nH]c3ncc(Cl)cc23)nc1N[C@H]1CCN(CC2CC2)C1` [Compound 415, (S)-2-(5-chloro-1H-pyrrolo[2,3-b]pyridin-3-yl)-N-(1-(cyclopropylmethyl)pyrrolidin-3-yl)-5-fluoropyrimidin-4-amine] showed an IC50 of over 20 µM. In the case of `CCC(=O)N[C@@H]1CCCC[C@H]1Nc1nc(-c2c[nH]c3ncc(Cl)cc23)ncc1F` (relative stereo) [Compound 349, N-[trans-2-[[2-(5-chloro-1H-pyrrolo[2,3-b]pyridin-3-yl)-5-fluoro-pyrimidin-4-yl]amino]cyclohexyl]propanamide], the IC50 is reported as over 20 µM. In the case of `O=S(=O)(CC1CCCC1)N1CC(Nc2nc(-c3c[nH]c4ncc(Cl)cc34)ncc2F)C1` [Compound 469, 2-(5-chloro-1H-pyrrolo[2,3-b]pyridin-3-yl)-N-(1-(cyclopentyl-methylsulfonyl)azetidin-3-yl)-5-fluoropyrimidin-4-amine], the IC50 is reported as over 20 µM. With `CS(=O)(=O)N[C@@H]1CCCC[C@H]1Nc1nc(-c2c[nH]c3ncc(Cl)cc23)ncc1F` [Compound 353, N-[(1R,2R)-2-[[2-(5-chloro-1H-pyrrolo[2,3-b]pyridin-3-yl)-5-fluoro-pyrimidin-4-yl]amino]cyclohexyl]methanesulfonamide] the IC50 was over 20 µM. `CCCS(=O)(=O)N[C@@H]1CCCC[C@@H]1Nc1nc(-c2c[nH]c3ncc(Cl)cc23)ncc1F` (relative stereo) [Compound 338, N-[cis-2-[[2-(5-chloro-1H-pyrrolo[2,3-b]pyridin-3-yl)-5-fluoro-pyrimidin-4-yl]amino]cyclohexyl]propane-1-sulfonamide] showed an IC50 of over 20 µM. Work on `CS(=O)(=O)N[C@@H]1CCCC[C@H]1Nc1nc(-c2c[nH]c3ncccc23)ncc1F` [Compound 361, N-[(1R,2R)-2-[[5-fluoro-2-(1H-pyrrolo[2,3-b]pyridin-3-yl)pyrimidin-4-yl]amino]cyclohexyl]methanesulfonamide] yielded an IC50 of over 20 µM. With `CC(C)OC(=O)N1CCC[C@H](Nc2nc(-c3c[nH]c4ncc(Cl)cc34)ncc2F)C1` [Compound 442] the IC50 was 5 to 20 µM.

Same assay, conditions: MDCK cells infected with A/PR/8/34; survival of infected cells; class symbols; read-out: IC50 (mean all)
`NC1CCCC(Nc2ccnc(-c3c[nH]c4ncc(Cl)cc34)n2)C1` (stereo not shown) [Compound 510] gave an IC50 of over 20 µM.

Same assay, conditions: read-out: IC50 (mean all)
For `COCC(=O)N1CCC[C@H](Nc2nc(-c3c[nH]c4ncc(Cl)cc34)ncc2F)C1` [Compound 486], the IC50 was 5 to 20 µM. Compound “(S)-6-(2-(5-chloro-1H-pyrrolo[2,3-b]pyridin-3-yl)-5-fluoropyrimidin-4-ylamino)-4-(4-methoxybenzyl)-1,4-oxazepan-2-one [Compound 505]” has an IC50 of 5 to 20 µM.
